Test results reported in paper PMC9037111, “Structure-based design, synthesis, and biological evaluation of novel piperine–resveratrol hybrids as antiproliferative agents targeting SIRT-2” (RSC Advances, 2021).
Read-outs that look alike come from different tables or passages of the source.

Columns and labels:
[1] = target: T1, SIRT1 (Homo sapiens, UniProt Q96EB6); test: biochemical; set-up: Sirtuin-TK assay, percent inhibition of human SIRT1 or SIRT2 at 5 and 50 uM
T1 sequence (Q96EB6 2-747): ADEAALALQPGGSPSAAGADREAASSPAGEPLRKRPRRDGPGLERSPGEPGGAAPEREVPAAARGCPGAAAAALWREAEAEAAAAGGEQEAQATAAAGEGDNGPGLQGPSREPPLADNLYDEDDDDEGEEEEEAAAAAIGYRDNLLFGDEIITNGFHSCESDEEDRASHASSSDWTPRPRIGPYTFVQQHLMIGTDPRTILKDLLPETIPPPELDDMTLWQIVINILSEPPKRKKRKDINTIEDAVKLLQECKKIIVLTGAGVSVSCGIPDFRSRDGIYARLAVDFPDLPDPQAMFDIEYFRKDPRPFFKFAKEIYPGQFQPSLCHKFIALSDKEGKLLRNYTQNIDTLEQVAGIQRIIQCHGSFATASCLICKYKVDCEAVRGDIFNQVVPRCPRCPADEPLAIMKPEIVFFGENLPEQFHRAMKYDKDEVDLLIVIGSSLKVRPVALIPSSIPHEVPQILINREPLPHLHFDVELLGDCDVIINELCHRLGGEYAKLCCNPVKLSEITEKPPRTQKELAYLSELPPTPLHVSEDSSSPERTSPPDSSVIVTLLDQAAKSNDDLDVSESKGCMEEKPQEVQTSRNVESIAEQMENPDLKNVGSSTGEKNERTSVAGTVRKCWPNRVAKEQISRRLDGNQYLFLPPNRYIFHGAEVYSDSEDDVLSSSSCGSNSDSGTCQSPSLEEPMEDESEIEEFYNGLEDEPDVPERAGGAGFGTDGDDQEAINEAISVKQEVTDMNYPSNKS
Experimental: (§1) Sirtuin-TK assay was performed to estimate the Sirtuins inhibitory potential of 5a–h (Tables 2 and 3). The results of this test strongly complemented the findings of cancer cell-based assessments. […] Of the 8 compounds evaluated, 3 analogs (5b, 5e and 5h) were more likely to inhibit Sirt2 (>70% inhibition) than Sirt1 (<50% inhibition) at 50 μM. The other compounds were poor inhibitors of both enzymes. […] 4.2.2. Sirtuin inhibitory assay

[2] = target: T2, SIRT2 (Homo sapiens, UniProt Q8IXJ6); test: biochemical; set-up: Sirtuin-TK assay, percent inhibition of human SIRT1 or SIRT2 at 5 and 50 uM
T2 sequence (Q8IXJ6 2-389): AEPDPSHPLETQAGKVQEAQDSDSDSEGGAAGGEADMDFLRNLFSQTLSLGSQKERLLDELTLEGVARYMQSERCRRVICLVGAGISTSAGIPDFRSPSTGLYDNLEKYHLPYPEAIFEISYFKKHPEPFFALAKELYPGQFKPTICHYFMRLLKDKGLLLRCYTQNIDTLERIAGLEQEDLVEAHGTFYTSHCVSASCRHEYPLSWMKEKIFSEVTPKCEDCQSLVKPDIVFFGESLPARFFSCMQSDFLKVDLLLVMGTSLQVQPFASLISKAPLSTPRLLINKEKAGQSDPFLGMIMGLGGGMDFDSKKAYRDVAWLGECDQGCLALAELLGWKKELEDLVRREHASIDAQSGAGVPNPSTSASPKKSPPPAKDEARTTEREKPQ
Experimental: as §1

[3] = tested on: SF-295; test: cells; set-up: species or system NCI-60 human tumour cell lines; NCI-60 one-dose screen at 10 uM, percent growth inhibition versus untreated control cells; conditions: Homo sapiens, SF-295, growth inhibition, one dose
[4] = tested on: NCI-H23; test: cells; set-up: species or system NCI-60 human tumour cell lines; NCI-60 one-dose screen at 10 uM, percent growth inhibition versus untreated control cells; conditions: Homo sapiens, NCI-H23, growth inhibition, one dose
[5] = tested on: RXF 393; test: cells; set-up: species or system NCI-60 human tumour cell lines; NCI-60 one-dose screen at 10 uM, percent growth inhibition versus untreated control cells; conditions: Homo sapiens, RXF 393, growth inhibition, one dose
[6] = tested on: HT29; test: cells; set-up: species or system NCI-60 human tumour cell lines; NCI-60 one-dose screen at 10 uM, percent growth inhibition versus untreated control cells; conditions: Homo sapiens, HT-29, growth inhibition, one dose
[7] = tested on: SK-OV-3; test: cells; set-up: species or system NCI-60 human tumour cell lines; NCI-60 one-dose screen at 10 uM, percent growth inhibition versus untreated control cells; conditions: Homo sapiens, SK-OV-3, growth inhibition, one dose
[8] = tested on: TK-10; test: cells; set-up: species or system NCI-60 human tumour cell lines; NCI-60 one-dose screen at 10 uM, percent growth inhibition versus untreated control cells; conditions: Homo sapiens, TK-10, growth inhibition, one dose
[9] = tested on: COLO 205; test: cells; set-up: species or system NCI-60 human tumour cell lines; NCI-60 one-dose screen at 10 uM, percent growth inhibition versus untreated control cells; conditions: Homo sapiens, COLO 205, growth inhibition, one dose
[10] = tested on: MDA-MB-468; test: cells; set-up: species or system NCI-60 human tumour cell lines; NCI-60 one-dose screen at 10 uM, percent growth inhibition versus untreated control cells; conditions: Homo sapiens, MDA-MB-468, growth inhibition, one dose
[11] = read-out: Growth% inhibition / 5b
[12] = read-out: Growth% inhibition / 5e

**Q.** What does the source list for `CN(C)c1ccc(C=NNC(=O)/C=C/C=C/c2ccc3c(c2)OCO3)cc1` (mixture of isomers) [5d, (2E,4E)-5-(Benzo[d][1,3]dioxol-5-yl)-N′-((E/Z)-4-(dimethylamino)-benzylidene)penta-2,4-dienehydrazide]?
**A.** inhibition at 5 µM [1]: 11 ± 2%; inhibition at 5 µM [2]: 18 ± 2%

**Q.** With `O=C(/C=C/C=C/c1ccc2c(c1)OCO2)NN=Cc1ccc(O)cc1` [5a, (2E,4E)-5-(Benzo[d][1,3]dioxol-5-yl)-N′-((E,Z)-4-hydroxybenzylidene)penta-2,4-dienehydrazide] as the molecule, how does the inhibition at 5 µM [1] read?
**A.** Its inhibition at 5 µM is 13 ± 3%.

**Q.** And the inhibition at 50 µM [1]?
**A.** Its inhibition at 50 µM is 42 ± 3%.

**Q.** What about the inhibition at 5 µM [2] of the same molecule?
**A.** Its inhibition at 5 µM is 19 ± 3%.

**Q.** For `O=C(/C=C/C=C/c1ccc2c(c1)OCO2)N/N=C/c1ccc(O)cc1O` [5b, (2E,4E)-5-(Benzo[d][1,3]dioxol-5-yl)-N′-((E)-2,4-dihydroxybenzylidene)penta-2,4-dienehydrazide], which inhibition at 10 µM [3, 11] is on record?
**A.** Its inhibition at 10 µM is 86.2%.

**Q.** What about the inhibition at 10 µM [4, 11] of the same molecule?
**A.** The inhibition at 10 µM was 70%.

**Q.** And the inhibition at 10 µM [5, 11]?
**A.** The inhibition at 10 µM was 42.1%.

**Q.** What about the inhibition at 10 µM [6, 11] of the same molecule?
**A.** Its inhibition at 10 µM is 51.9%.

**Q.** What about the inhibition at 10 µM [7, 11] of the same molecule?
**A.** Its inhibition at 10 µM is 73%.

**Q.** And the inhibition at 10 µM [8, 11]?
**A.** Its inhibition at 10 µM is 69%.

**Q.** What about the inhibition at 10 µM [9, 11] of the same molecule?
**A.** The inhibition at 10 µM was 86%.

**Q.** What about the inhibition at 5 µM [1] of the same molecule?
**A.** The inhibition at 5 µM was 18 ± 3%.

**Q.** And the inhibition at 5 µM [2]?
**A.** The inhibition at 5 µM was 26 ± 3%.

**Q.** What about the inhibition at 50 µM [2] of the same molecule?
**A.** The inhibition at 50 µM was 78 ± 3%.

**Q.** `CCN(CC)c1ccc(/C=N/NC(=O)/C=C/C=C/c2ccc3c(c2)OCO3)c(O)c1` [5e, (2E,4E)-5-(Benzo[d][1,3]dioxol-5-yl)-N′-((E)-4-(diethylamino)-2-hydroxybenzylidene)penta-2,4-dienehydrazide] was tested. Which inhibition at 10 µM [3, 12] did it give?
**A.** Its inhibition at 10 µM is 58.3%.

**Q.** And the inhibition at 10 µM [4, 12]?
**A.** The inhibition at 10 µM was 50.3%.

**Q.** What about the inhibition at 10 µM [10, 12] of the same molecule?
**A.** The inhibition at 10 µM was 86.6%.

**Q.** What about the inhibition at 10 µM [5, 12] of the same molecule?
**A.** Its inhibition at 10 µM is 27.4%.

**Q.** And the inhibition at 10 µM [6, 12]?
**A.** Its inhibition at 10 µM is 32.2%.

**Q.** And the inhibition at 10 µM [7, 12]?
**A.** The inhibition at 10 µM was 60.5%.

**Q.** What about the inhibition at 10 µM [8, 12] of the same molecule?
**A.** Its inhibition at 10 µM is 62.2%.

**Q.** And the inhibition at 10 µM [9, 12]?
**A.** Its inhibition at 10 µM is 60.1%.

**Q.** And the inhibition at 5 µM [1]?
**A.** The inhibition at 5 µM was 20 ± 5%.

**Q.** What about the inhibition at 50 µM [1] of the same molecule?
**A.** Its inhibition at 50 µM is 44 ± 2%.

**Q.** And the inhibition at 5 µM [2]?
**A.** The inhibition at 5 µM was 24 ± 3%.

**Q.** And the inhibition at 50 µM [2]?
**A.** Its inhibition at 50 µM is 74 ± 2%.

**Q.** For `C/C(=N\NC(=O)/C=C/C=C/c1ccc2c(c1)OCO2)c1ccc(Br)cc1` [5h, (2E,4E)-5-(Benzo[d][1,3]dioxol-5-yl)-N′-((E)-1-(4-bromophenyl)ethylidene)penta-2,4-dienehydrazide], which inhibition at 10 µM ([10]; read-out: Growth% inhibition / 5h) is on record?
**A.** Its inhibition at 10 µM is 29.3%.

**Q.** And the inhibition at 5 µM [1]?
**A.** Its inhibition at 5 µM is 16 ± 5%.

**Q.** What about the inhibition at 50 µM [1] of the same molecule?
**A.** The inhibition at 50 µM was 44 ± 3%.

**Q.** And the inhibition at 5 µM [2]?
**A.** The inhibition at 5 µM was 22 ± 5%.

**Q.** What about the inhibition at 50 µM [2] of the same molecule?
**A.** The inhibition at 50 µM was 75 ± 3%.
